For series [1], the target named is T1, S-nitrosoglutathione reductase (GSNOR) (Homo sapiens, UniProt P11766).
T1 construct: made in house; host or cells: E. coli
The series can be described thus: GSNOR assay (inhibition of GSNOR activity, NADH absorbance at 340 nm). The format is biochemical. As to conditions: GSNOR inhibitor activity, Tables 1-6; read-out: IC50 range. The essentials:
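Recombinant GSNOR purified from E. coli, tag removed. Final conditions: 100 mM NaPO4 pH 7.4, 0.240 mM GSNO, 0.300 mM NADH, 0.5 μg/mL enzyme, 1% DMSO; NADH loss followed as 340 nm absorbance change over 3 min at 25 °C. Compounds 100–0.003 μM, triplicate; IC50 by curve analysis.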

Series [2] can be described thus: Mouse pharmacokinetic (PK) study. The format is in vivo. As to conditions: male, BALB/c, plasma, po, 10 mg/kg, male BALB/c mice, 2 mg/kg IV, 10 mg/kg PO, read-out: oral bioavailability (% F). An excerpt: The mouse was used to determine the pharmacokinetics of compounds of the invention. This species is widely used to assess the bioavailability of compounds by administering both oral (PO) and intravenous (IV) test articles. Efficacy of the compounds of the invention was compared by assessing plasma exposure in male BALB/c mice either via IV or PO administration at the times of peak activity.
Compounds of the invention were reconstituted in a phosphate buffered saline (PBS)/10% Solutol (HS 15) clear solution resulting in a concentration of 0.2 mg/mL and administered to mice (2 mg/kg) as a single IV dose. Animals were dosed via the lateral tail vein. Blood samples were collected at designated time points (0.083, 0.25, 0.5, 1, 2, 4, 8, 16, 24 hours) by cardiac puncture under isoflurane anesthesia (up to 1 mL blood per animal). The blood was collected into tubes containing Li-Heparin. The blood samples were kept on ice until centrifugation within approximately 30 minutes of collection. The plasma was transferred into labeled polypropylene tubes and frozen at −70° C. until analyzed by LC/MS/MS.
The compounds of the invention were reconstituted in 40% Propylene Glycol/40% Propylene Carbonate/20% of a 5% Sucrose clear solution resulting in a concentration of 2 mg/mL and administered to mice (10 mg/kg) as a single oral dose via gavage. Blood samples were collected at 0.25, 0.5, 1, 2, 4, 8, 12, 16, 20 and 24 hours post dose by cardiac puncture under isoflurane anesthesia. The blood was collected in tubes containing Li-Heparin. The blood samples were kept on ice until centrifugation within approximately 30 minutes of collection. The plasma was transferred into labeled polypropylene tubes and frozen at −70° C. until analyzed by LC/MS/MS.
Plasma samples at each timepoint were analyzed using a LC-MS/MS with a lower limit of quantification (LLOQ) of 1 ng/mL. Plasma was analyzed to determine the amount of the compound of the invention in each sample and regression curves generated for each compounds of the invention in the relevant matrixes.
WinNonlin analysis was used for calculating PK parameters for both the IV and PO administrations:
PK parameters for IV portion—AUClast; AUCINF; T1/2; Cl; Vss; Cmax; MRT
PK parameters for PO portion—AUClast; AUCINF; T1/2; Cmax; Cl, MRT.
In addition to the above PK parameters, bioavailability (% F) was calculated.

Series [3] concerns ovalbumin (OVA)-induced asthma. The series can be described thus: Mouse model of ovalbumin (OVA)-induced asthma (Penh, eosinophil infiltrate in BALF). Format: in vivo. As to conditions: three oral doses of 10 mg/kg at 48 h, 24 h, and 1 h prior to assessment. The procedure:
A mouse model of ovalbumin (OVA)-induced asthma was used to screen GSNOR inhibitors for efficacy against methacholine (MCh)-induced bronchoconstriction/airway hyper-responsiveness. This is a widely used and well characterized model that presents with an acute, allergic asthma phenotype with similarities to human asthma. Efficacy of GSNOR inhibitors was assessed using a protocol in which GSNOR inhibitors were administered after OVA sensitization and airway challenge, and prior to challenge with MCh. Bronchoconstriction in response to challenge with increasing doses of MCh was assessed using whole body plethysmography (Penh; Buxco). The amount of eosinophil infiltrate into the bronchoaveolar lavage fluid (BALF) was also determined as a measure of lung inflammation. The effects of GSNOR inhibitors were compared to vehicles and to Combivent (inhaled; IH) as the positive control.
OVA (500 μg/ml) in PBS was mixed with equal volumes of 10% (w/v) aluminum potassium sulfate in distilled water and incubated for 60 min. at room temperature after adjustment to pH 6.5 using 10 N NaOH. After centrifugation at 750×g for 5 min, the OVA/alum pellet was resuspended to the original volume in distilled water. Mice received an intraperitoneal (IP) injection of 100 μg OVA (0.2 mL of 500 μg/mL in normal saline) complexed with alum on day 0. Mice were anesthetized by IP injection of a 0.2-mL mixture of ketamine and xylazine (0.44 and 6.3 mg/mL, respectively) in normal saline and were placed on a board in the supine position. Two hundred fifty micrograms (100 μl of a 2.5 mg/ml) of OVA (on day 8) and 125 μg (50 μl of 2.5 mg/ml) OVA (on days 15, 18, and 21) were placed on the back of the tongue of each animal.
In vivo airway responsiveness to methacholine was measured 24 h after the last OVA challenge in conscious, freely moving, spontaneously breathing mice with whole body plethysmography using a Buxco chamber (Wilmington, N.C.). Mice were challenged with aerosolized saline or increasing doses of methacholine (5, 20, and 50 mg/mL) generated by an ultrasonic nebulizer for 2 min. The degree of bronchoconstriction was expressed as enhanced pause (Penh), a calculated dimensionless value, which correlates with the measurement of airway resistance, impedance, and intrapleural pressure in the same mouse. Penh readings were taken and averaged for 4 min. after each nebulization challenge. Penh is calculated as follows: Penh=[(Te/Tr−1)×(PEF/PIF)], where Te is expiration time, Tr is relaxation time, PEF is peak expiratory flow, and PIF is peak inspiratory flow×0.67 coefficient. The time for the box pressure to change from a maximum to a user-defined percentage of the maximum represents the relaxation time. The Tr measurement begins at the maximum box pressure and ends at 40%.
After measurement of airway hyper-reactivity, the mice were exsanguinated by cardiac puncture, and then BALF was collected from either both lungs or from the right lung after tying off the left lung at the mainstem bronchus. Total BALF cells were counted from a 0.05 mL aliquot, and the remaining fluid was centrifuged at 200×g for 10 min at 4° C. Cell pellets were resuspended in saline containing 10% BSA with smears made on glass slides. Eosinophils were stained for 5 min. with 0.05% aqueous eosin and 5% acetone in distilled water, rinsed with distilled water, and counterstained with 0.07% methylene blue. Alternatively, eosinophils and other leukocytes were stained with DiffQuik.
GSNOR inhibitors were reconstituted in phosphate buffered saline (PBS), pH 7.4, or 0.5% w/v carboxy methylcellulose at concentrations ranging from 0.00005 to 3 mg/mL. GSNOR inhibitors were administered to mice (10 mL/kg) as a single dose or multiple dose either intravenously (IV) or orally via gavage. Dosing was performed from 30 min. to 72 h prior to MCh challenge. Effects of GSNOR inhibitors were compared to vehicle dosed in the same manner.
Combivent was used as the positive control in all studies. […]

In series [4] the test system is cigarette smoke-induced COPD. The series can be described thus: Subchronic (11 day) cigarette smoke exposure COPD model. Format: in vivo, mouse. As to conditions: subchronic 11 day model; for inhibition of smoke-induced increase in lymphocytes in BAL / inhibition of smoke-induced increase in macrophages in BAL / inhibition of smoke-induced increase in neutrophils in BAL / inhibition of smoke-induced increase in total cells in BAL: oral 1 mg/kg/day for 11 days; for effects compared with roflumilast: roflumilast 5 mg/kg/day. The procedure: Infiltration of inflammatory cells into the bronchoalveolar lavage fluid (BALF) and BALF levels of chemokines involved in inflammation and tissue turnover/repair were measured to assess the influences of GSNOR inhibitors on some of the early events associated with the initiation and progression of COPD. […] In animal models, changes in lung pathology are only evident after extended (several months) duration of exposure to cigarette smoke, thus making chronic models prohibitive as effective screening tools. […] The key roles of inflammation in the initiation and progression of COPD, make these short duration models relevant for initial tests of efficacy of novel therapeutics. Female C57Bl/6 mice (N=10 per group) were exposed to cigarette smoke generated from Marlboro 100 cigarettes without filters. Exposure times were 25 min. on study day 1, 35 min. on study day 2, and 45 min. on study days 3 to 11. GSNOR inhibitors were administered one hour prior to smoke exposure on each day. GSNOR inhibitors were dosed orally at 1 to 10 mg/kg/day for 11 days. […] The effect of GSNOR inhibitors were compared to vehicle treated controls and expressed as percent inhibition of the cigarette smoke induced increases in BALF cell numbers. Roflumilast was used as the positive control for the study and was dosed at 5 mg/kg/day. A group of naïve mice (N=10) was exposed to air and dosed with vehicle as a negative control for the study.

Series [5] deals with dextran sodium sulfate (DSS)-induced IBD. The series can be described thus: Acute prophylactic model of DSS-induced IBD. Format: in vivo, mouse. Particulars: oral 1 mg/kg/day for 10 days, prophylactic. The text has this:
(§1) Acute and chronic models of dextran sodium sulfate (DSS)-induced IBD in mice were used to explore efficacy of GSNORi against this disease. Acute and chronic DSS-induced IBD are widely used and well characterized models that induce pathological changes in the colon similar to those observed in the human disease. In these models and in human disease, epithelial cells within the crypts of the colon are disrupted, leading to dysfunction of the epithelial barrier and the ensuing tissue inflammation, edema, and ulceration. GSNORi therapy may benefit IBD by restoring s-nitrosoglutathione (GSNO) levels, and thus prevent or reverse the epithelial barrier dysfunction. Experimental IBD was induced by administration of DSS in the drinking water of male C57Bl/6 mice (N=8 to 10 mice per group) for 6 consecutive days. GSNORi was dosed orally at doses of 0.1 to 10 mg/kg/day for 10 days starting two days prior to and continuing two days post DSS exposure. […] Levels of circulating cytokines involved in inflammatory pathways were also assessed. The effect of GSNORi was compared to vehicle treated controls. […] Naïve mice (N=5) were also assessed as a normal tissue control.

Series [6] shares this test system. The series can be described thus: Chronic treatment model of DSS-induced IBD. The format is in vivo, mouse. As to conditions: oral 10 mg/kg/day for up to 14 days, treatment regimen.
From the text: as §1, with “mice (N=10” for “mice (N=8”, “to 12” for “to 10”, “of” for “of 0.1 to”, “for 14” for “for 10”, “starting one day after cessation of” for “starting two days prior to and continuing two days post”

T1 sequence (P11766 whole entry): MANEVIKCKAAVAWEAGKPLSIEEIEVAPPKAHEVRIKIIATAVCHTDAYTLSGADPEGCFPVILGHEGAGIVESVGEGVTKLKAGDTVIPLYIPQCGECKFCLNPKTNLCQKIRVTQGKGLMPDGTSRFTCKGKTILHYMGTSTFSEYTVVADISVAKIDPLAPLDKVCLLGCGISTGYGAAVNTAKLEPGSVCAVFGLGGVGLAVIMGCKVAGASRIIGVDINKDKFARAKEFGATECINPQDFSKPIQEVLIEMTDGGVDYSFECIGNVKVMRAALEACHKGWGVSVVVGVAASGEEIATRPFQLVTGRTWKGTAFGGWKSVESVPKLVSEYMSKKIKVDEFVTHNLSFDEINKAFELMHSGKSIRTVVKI

For the compound `Oc1ccc2nc(-c3ccc(-c4nnn[nH]4)cc3)ccc2c1` [Compound I-4], in series [1], the IC50 is below 100 nM. The bioavailability in series [2] was above 9%.

Turning to `Cc1cc(C(=O)O)ccc1-c1ccc2cc(O)ccc2n1` [Compound I-27], the IC50 in series [1] is below 100 nM. The “decrease of eosinophil infiltration in BAL” value in series [3] is 23 % of vehicle control. In addition, in series [4], the “inhibition of smoke-induced increase in lymphocytes in BAL” value turned out to be 46%, the “inhibition of smoke-induced increase in macrophages in BAL” value is given as 41%, the “inhibition of smoke-induced increase in neutrophils in BAL” value amounted to 64% and the “inhibition of smoke-induced increase in total cells in BAL” value is on record as 44%. Also, the “effects compared with roflumilast” value in series [4] was “comparable to those of roflumilast”.

With `O=C(O)c1ccc(-c2nc3ccc(O)cc3cc2Cl)cc1` [Compound I-19], the IC50 in series [1] was below 100 nM. Also, the bioavailability in series [2] is above 9%.

As for `O=C(O)c1ccc(-c2ccc3cc(O)ccc3c2)c(Cl)c1` [III-1], the IC50 in series [1] is below 100 nM. Further, the “decrease of percent of mice with severe colon injury scores via endoscopy” value in series [5] was 17 % of vehicle control; in series [6], 50 % of vehicle control. In addition, the entries for the “decrease of percent of mice with severe colon injury scores via histopathology” value in series [5] and in series [6] were 21 % of vehicle control and 17 % of vehicle control, respectively. Moreover, in series [4], the “effects compared with roflumilast” value is “comparable to those of roflumilast”.

`O=C(O)c1ccc(-c2nc3ccc(O)cc3cc2Cl)c(F)c1` [Compound I-28]: the IC50 in series [1] is below 100 nM. For the same compound, the bioavailability in series [2] was above 9%.

For `O=C(O)c1ccc(-c2ccc3cc(O)ccc3n2)c(F)c1` [Compound I-13], in series [1], the half-maximal inhibitory concentration (IC50) was below 100 nM. For the same compound, in series [6], the “decrease of percent of mice with severe colon injury scores via endoscopy” value is 52 % of vehicle control and the “decrease of percent of mice with severe colon injury scores via histopathology” value was 53 % of vehicle control. Moreover, in series [4], the “inhibition of smoke-induced increase in lymphocytes in BAL” value came out at 60%, the “inhibition of smoke-induced increase in macrophages in BAL” value was found to be 53%, the “inhibition of smoke-induced increase in neutrophils in BAL” value amounted to 67% and the “inhibition of smoke-induced increase in total cells in BAL” value stood at 56%. In addition, the “effects compared with roflumilast” value in series [4] is “comparable to those of roflumilast”.

Source of the values: patent US20140094465A1, “Compounds as S-Nitrosoglutathione Reductase Inhibitors” (N30 PHARMACEUTICALS, INC., priority 2011, published 2014).
